# Reference: paper PMC5539068, “Structural optimization and evaluation of novel 2-pyrrolidone-fused (2-oxoindolin-3-ylidene)methylpyrrole derivatives as potential VEGFR-2/PDGFRβ inhibitors” (Chemistry Central Journal, 2017)
# “Also recorded” adds a separate entry of the source. Like-named read-outs stand apart in the source and are kept apart here.
# What was measured:
# NCI-H460 cells = assay: Cell proliferation assay (MTT), NCI-H460; details: for IC50: Homo sapiens, NCI-H460, 72 h, read-out: IC50 NCI-H460; for selective index (SI) NCI-H460: versus Detroit 551
# Experimental: (§2) Serial dilutions of indicated compounds were added and incubated for additional 72 h. At the end of the incubation, cell viability was determined by the 3-(4,5-dimethylthiazol-2-yl)-2,5-diphenyl tetrazolium bromide (MTT) assay. The MTT formazan crystals formed were dissolved in DMSO, and the absorbance at 570 nm was recorded using a microplate spectrophotometer (Thermo Fisher Scientific, Waltham, MA, USA) [46].
# 786-O cells = assay: Cell proliferation assay (MTT), 786-O; details: for IC50: Homo sapiens, 786-0, 72 h, read-out: IC50 786-O; for selective index (SI) 786-O: versus Detroit 551
# Experimental: as §2
# Detroit 551 cells [1] = assay: Cell proliferation assay (MTT), normal fibroblast Detroit 551; details: Homo sapiens, Detroit 551, 72 h, read-out: IC50 Detroit 551
# Experimental: as §2
# HCT116 cells [2] = assay: Cell proliferation assay (MTT), HCT116; details: for IC50: Homo sapiens, HCT-116, 72 h, read-out: IC50 HCT116; for selective index (SI) HCT116: versus Detroit 551
# Experimental: as §2
# VEGFR-2 = VEGFR-2 (Homo sapiens, UniProt P35968); assay: In-vitro kinase assay (HotSpot, 33P), VEGFR-2; details: for % inhibition of VEGFR-2 at 80 nM: 80 nM compound, ATP 10.0 μM; for inhibition at 0.08 µM: read-out: % inhibition of VEGFR-2 at 80 nM
# Experimental: Next, the VEGFR-2 phosphorylation inhibitory activities of the newly synthesized compounds were evaluated.
# (§3) Briefly, specific kinase and substrate and required cofactors were prepared in reaction buffer. Test compounds were added to the reaction and after 20 min a mixture of ATP (Sigma, St. Louis MO, USA) and ^33P ATP (Perkin Elmer, Waltham MA, USA) was added to make a final concentration of 10.0 μM. Reactions were stood at room temperature for 120 min, and then the reactions were spotted onto a P81 ion exchange filter paper (Whatman Inc., Piscataway, NJ, USA). Unbound phosphate was removed by extensive washing of filters in 0.1% phosphoric acid. Kinase activity data was reported as the percent remaining kinase activity in test compounds compared to the solvent control dimethyl sulfoxide (DMSO).
# Aurora A = biological target: T1, Aurora A (Homo sapiens, UniProt O14965); assay: In-vitro kinase assay (HotSpot, 33P), Aurora A; details: ATP 10.0 μM; for % inhibition of Aurora A at 1.0 μM: 1.0 μM compound; for inhibition at 1 µM: read-out: % inhibition of Aurora A at 1.0 μM, 1.0 μM compound
# T1 sequence (O14965 1-403): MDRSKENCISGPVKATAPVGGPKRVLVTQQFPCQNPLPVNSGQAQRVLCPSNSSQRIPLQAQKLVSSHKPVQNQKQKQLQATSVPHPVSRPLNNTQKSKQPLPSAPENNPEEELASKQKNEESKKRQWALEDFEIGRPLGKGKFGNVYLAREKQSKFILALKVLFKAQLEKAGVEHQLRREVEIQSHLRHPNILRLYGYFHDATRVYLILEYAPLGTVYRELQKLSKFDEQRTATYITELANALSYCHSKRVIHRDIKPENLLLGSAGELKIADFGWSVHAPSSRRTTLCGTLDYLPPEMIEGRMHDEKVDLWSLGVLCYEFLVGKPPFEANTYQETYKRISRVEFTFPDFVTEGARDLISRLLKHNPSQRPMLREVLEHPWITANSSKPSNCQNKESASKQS
# Experimental: as §3
# HUVEC cells = assay: In-vitro VEGF-induced Matrigel tube formation assay; type: cell-based, human; details: for IC50: Homo sapiens, HUVEC, VEGF 10 ng/ml, Matrigel, 6 h, read-out: IC50 Area (in vitro tube formation); for potency in inhibiting in vitro tube formation relative to sunitinib in terms of IC50: versus sunitinib
# Experimental: The in vitro tube formation assay was assessed using ibidi μ-Slides (15-well, ibidi GmbH, Martinsried, Germany) in accordance with manufacturer’s protocol. Briefly, growth factor reduced Matrigel (10 μl) (Sigma, St. Louis MO) was added to the inner well of ibidi μ-Slides, and incubated at 37 °C for 1 h. […] 10,000 HUVEC cells in 50 μl of above growth medium was added to Matrigel (Sigma, St. Louis MO, USA) coated ibidi μ-Slides. After 6 h of incubation at 37 °C, the supernatant was discarded, and 50 μl of serum-free medium with diluted calcein AM (6.25 μg/ml) was added to above ibidi μ-Slides. After incubation in the dark at room temperature for 30 min, the μ-Slides were washed with PBS (50 μl) and fluorescence pictures were taken at 485 nm with a Leica DM1000 LED microscope (Leica Microsystems, Wetzlar, Hessen, Germany).
# HCT116 cells [3] = assay: Cell cycle analysis by image cytometry (DAPI); details: 24 h, preliminary
# Experimental: Cell cycle profiles of HCT116 cells were determined with an NC-3000 image cytometer (ChemoMetec, Allerod, Denmark) in accordance with manufacturer’s protocol. Briefly, cells were seeded at 200,000 cells/well on a 6-well plate for 24 h. […] After incubation for 24 h, 100,000 cells were harvested and centrifuged at 400 g at room temperature for 5 min, washed once with PBS (50 μM), and resuspended in lysis buffer (50 μl) (ChemoMetec, Allerod, Denmark) containing 10 μg/ml of 2-(4-amidinophenyl)-1H-indole-6-carboxamidine (DAPI, ChemoMetec, Allerod, Denmark). […] The cellular fluorescence was measured with an NC-3000 image cytometer using NC-SlideA8 (ChemoMetec, Allerod, Denmark). The NC-3000 software (ChemoMetec, Allerod, Denmark) was used for image acquisition, image analysis and quantification, and data visualization.
# Detroit 551 cells [4] = test system: Detroit 551 cells
# Experimental: (§1) Cells were seeded at 5000 cells/well on a 96-well plate for 24 h. The indicated compounds in different concentrations (100 μl) were added to cells. After 6 h, old medium was aspirated, and the cells were washed three times with PBS. WST-8 (Dojindo, Rockville, MD, USA) (10 µl) was added to each well, and the absorbance of the plate was recorded at 450 nm on a microplate spectrophotometer (Thermo Fisher Scientific, Waltham, MA, USA).
# HCT116 cells [5] = test system: HCT116 cells
# Experimental: as §1
# PDGFRβ = PDGFRβ (Homo sapiens, UniProt P09619); assay: In-vitro kinase assay (HotSpot, 33P), PDGFRβ
# Chain of PDGFRβ (P09619 33-1106): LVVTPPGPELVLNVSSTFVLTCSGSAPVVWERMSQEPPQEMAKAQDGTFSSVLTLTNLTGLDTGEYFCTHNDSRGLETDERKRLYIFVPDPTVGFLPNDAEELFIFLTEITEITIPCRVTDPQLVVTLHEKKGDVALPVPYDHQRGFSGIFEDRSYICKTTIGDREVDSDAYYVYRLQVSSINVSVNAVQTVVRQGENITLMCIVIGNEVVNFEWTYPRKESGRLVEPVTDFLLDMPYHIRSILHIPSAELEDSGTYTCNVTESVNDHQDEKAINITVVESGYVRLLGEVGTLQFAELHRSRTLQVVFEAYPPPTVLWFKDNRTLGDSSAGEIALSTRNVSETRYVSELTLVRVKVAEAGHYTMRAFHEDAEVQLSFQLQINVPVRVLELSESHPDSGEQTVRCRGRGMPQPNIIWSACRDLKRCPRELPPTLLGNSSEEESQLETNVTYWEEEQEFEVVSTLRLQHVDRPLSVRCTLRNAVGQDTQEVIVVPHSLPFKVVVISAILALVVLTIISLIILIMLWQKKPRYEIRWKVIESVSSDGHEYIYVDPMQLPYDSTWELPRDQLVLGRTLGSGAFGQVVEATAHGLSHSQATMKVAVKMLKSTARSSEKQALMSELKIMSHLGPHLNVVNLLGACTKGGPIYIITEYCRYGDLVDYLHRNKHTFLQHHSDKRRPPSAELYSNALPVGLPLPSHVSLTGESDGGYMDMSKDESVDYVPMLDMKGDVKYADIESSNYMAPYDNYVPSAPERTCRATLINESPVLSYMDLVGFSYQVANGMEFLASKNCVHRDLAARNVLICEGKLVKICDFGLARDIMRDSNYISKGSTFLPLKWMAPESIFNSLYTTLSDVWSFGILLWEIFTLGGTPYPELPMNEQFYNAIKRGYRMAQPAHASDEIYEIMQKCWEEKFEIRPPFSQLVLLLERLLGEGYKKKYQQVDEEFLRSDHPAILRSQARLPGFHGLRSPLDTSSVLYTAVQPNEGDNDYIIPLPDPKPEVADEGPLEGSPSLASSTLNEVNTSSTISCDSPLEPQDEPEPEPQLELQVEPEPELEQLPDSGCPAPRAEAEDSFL
# Chain of VEGFR-2 (P35968 20-1356): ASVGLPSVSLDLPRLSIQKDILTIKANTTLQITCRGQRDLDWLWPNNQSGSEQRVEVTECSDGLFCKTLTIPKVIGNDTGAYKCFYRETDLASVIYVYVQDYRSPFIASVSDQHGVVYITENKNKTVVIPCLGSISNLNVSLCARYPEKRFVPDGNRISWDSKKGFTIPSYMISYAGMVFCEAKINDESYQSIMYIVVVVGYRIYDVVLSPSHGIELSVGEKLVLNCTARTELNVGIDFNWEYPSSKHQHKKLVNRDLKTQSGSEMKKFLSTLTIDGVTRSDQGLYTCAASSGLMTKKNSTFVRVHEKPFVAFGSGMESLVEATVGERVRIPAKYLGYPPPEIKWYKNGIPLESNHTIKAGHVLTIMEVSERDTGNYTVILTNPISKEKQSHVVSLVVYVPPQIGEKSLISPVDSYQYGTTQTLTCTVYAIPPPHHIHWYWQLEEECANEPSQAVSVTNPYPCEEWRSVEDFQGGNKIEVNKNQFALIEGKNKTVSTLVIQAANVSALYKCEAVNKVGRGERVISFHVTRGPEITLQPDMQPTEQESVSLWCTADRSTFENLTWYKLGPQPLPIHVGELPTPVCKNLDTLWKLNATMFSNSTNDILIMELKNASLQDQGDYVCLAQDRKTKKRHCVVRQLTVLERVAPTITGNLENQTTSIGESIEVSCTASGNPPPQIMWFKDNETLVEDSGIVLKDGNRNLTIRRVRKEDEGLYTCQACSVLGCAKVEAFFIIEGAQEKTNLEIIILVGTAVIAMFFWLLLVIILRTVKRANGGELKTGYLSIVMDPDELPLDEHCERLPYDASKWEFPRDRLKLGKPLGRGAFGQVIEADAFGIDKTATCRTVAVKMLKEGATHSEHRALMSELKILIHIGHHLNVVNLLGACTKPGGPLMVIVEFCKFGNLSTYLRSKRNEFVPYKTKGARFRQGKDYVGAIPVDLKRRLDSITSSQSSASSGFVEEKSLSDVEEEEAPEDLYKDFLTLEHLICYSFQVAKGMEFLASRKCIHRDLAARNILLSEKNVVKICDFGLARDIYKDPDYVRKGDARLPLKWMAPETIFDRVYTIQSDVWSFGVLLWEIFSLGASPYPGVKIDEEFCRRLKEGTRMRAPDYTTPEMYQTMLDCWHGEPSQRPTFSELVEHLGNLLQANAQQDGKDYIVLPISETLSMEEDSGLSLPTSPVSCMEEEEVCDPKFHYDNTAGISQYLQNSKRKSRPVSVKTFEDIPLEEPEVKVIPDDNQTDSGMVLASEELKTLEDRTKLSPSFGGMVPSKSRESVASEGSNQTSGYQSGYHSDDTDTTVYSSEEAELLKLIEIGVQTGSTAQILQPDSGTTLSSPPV
SMILES,IC50 (NCI-H460 cells),IC50 (786-O cells),IC50 (Detroit 551 cells [1]),IC50 (HCT116 cells [2]),% inhibition of VEGFR-2 at 80 nM (VEGFR-2),inhibition at 0.08 µM (VEGFR-2),melting point,selective index (SI) HCT116 (HCT116 cells [2]),selective index (SI) NCI-H460 (NCI-H460 cells),other results
"CCN(CC)CCN1Cc2[nH]c(/C=C3\C(=O)Nc4ccc(S(N)(=O)=O)cc43)c(C)c2C1=O [Compound 4, (Z)-3-((5-(2-(diethylamino)ethyl)-3-methyl-4-oxo-1,4,5,6-tetrahydropyrrolo[3,4-b]pyrrol-2-yl)methylene)-2-oxoindoline-5-sulfonamide]",> 10 µM,> 10 µM,> 10 µM,> 10 µM,did not differ from that of the 1% DMSO (control),0%,252 to 255 °C,–,–,–
"CCN(CC)CCN1Cc2[nH]c(/C=C3\C(=O)Nc4ccc(S(=O)(=O)N(C)C)cc43)c(C)c2C1=O [Compound 5, (Z)-3-((5-(2-(diethylamino)ethyl)-3-methyl-4-oxo-1,4,5,6-tetrahydropyrrolo[3,4-b]pyrrol-2-yl)methylene)-N,N-dimethyl-2-oxoindoline-5-sulfonamide]",> 10 µM,> 10 µM,> 10 µM,8.98 ± 0.92 µM,–,20%,244 to 247 °C,>1.11,–,–
"CCN(CC)CCN1Cc2[nH]c(/C=C3\C(=O)Nc4ccc(S(=O)(=O)N(CC)CC)cc43)c(C)c2C1=O [Compound 6, (Z)-3-((5-(2-(diethylamino)ethyl)-3-methyl-4-oxo-1,4,5,6-tetrahydropyrrolo[3,4-b]pyrrol-2-yl)methylene)-N,N-diethyl-2-oxoindoline-5-sulfonamide]",> 10 µM,> 10 µM,> 10 µM,4.2 ± 0.57 µM,–,0%,245 to 247 °C,>2.38,–,–
"CCN(CC)CCN1Cc2[nH]c(/C=C3\C(=O)Nc4ccc(S(=O)(=O)N(CCCl)CCCl)cc43)c(C)c2C1=O [Compound 7, (Z)-N,N-Bis(2-chloroethyl)-3-((5-(2-(diethylamino)ethyl)-3-methyl-4-oxo-1,4,5,6-tetrahydropyrrolo[3,4-b]pyrrol-2-yl)methylene)-2-oxoindoline-5-sulfonamide]",> 10 µM,> 10 µM,6.06 ± 0.4 µM,3.65 ± 0.19 µM,–,46%,–,1.66,<0.61,"% inhibition of Aurora A at 1.0 μM (Aurora A): 94.4%; inhibition at 1 µM (Aurora A): 92.9%; IC50 (HUVEC cells): 0.76 ± 0.11 µM; potency in inhibiting in vitro tube formation relative to sunitinib in terms of IC50 (HUVEC cells): twofold higher; selective index (SI) 786-O (786-O cells): <0.61; cell cycle profile effect (HCT116 cells [3]; 5.0 μM): increase in polyploid cells; IC50 (VEGFR-2): 0.0237 µM; acute cytotoxicity, Detroit 551 (Detroit 551 cells [4]; 10 μM, 6 h, WST-8): neither our compounds nor sunitinib had acute cytotoxicity; acute cytotoxicity, HCT116 (HCT116 cells [5]; 10 μM, 6 h, WST-8): neither our compounds nor sunitinib had acute cytotoxicity; IC50 (PDGFRβ): 0.0632 µM"
"CCN(CC)CCN1Cc2[nH]c(/C=C3\C(=O)Nc4ccc(S(=O)(=O)Nc5ccccc5)cc43)c(C)c2C1=O [Compound 8, (Z)-3-((5-(2-(Diethylamino)ethyl)-3-methyl-4-oxo-1,4,5,6-tetrahydropyrrolo[3,4-b]pyrrol-2-yl)methylene)-2-oxo-N-phenylindoline-5-sulfonamide]",> 10 µM,> 10 µM,> 10 µM,> 10 µM,did not differ from that of the 1% DMSO (control),15%,225 to 228 °C,–,–,–
"CCN(CC)CCN1Cc2[nH]c(/C=C3\C(=O)Nc4ccc(S(=O)(=O)Nc5ccc(C(F)(F)F)cc5)cc43)c(C)c2C1=O [Compound 9, (Z)-3-((5-(2-(Diethylamino)ethyl)-3-methyl-4-oxo-1,4,5,6-tetrahydropyrrolo[3,4-b]pyrrol-2-yl)methylene)-2-oxo-N-(4-(trifluoromethyl)phenyl)indoline-5-sulfonamide]",> 10 µM,> 10 µM,> 10 µM,> 10 µM,did not differ from that of the 1% DMSO (control),0%,231 to 234 °C,–,–,–
"CCN(CC)CCN1Cc2[nH]c(/C=C3\C(=O)Nc4ccc(NS(C)(=O)=O)cc43)c(C)c2C1=O [Compound 10, (Z)-N-(3-((5-(2-(Diethylamino)ethyl)-3-methyl-4-oxo-1,4,5,6-tetrahydropyrrolo[3,4-b]pyrrol-2-yl)methylene)-2-oxoindolin-5-yl)methanesulfonamide]",> 10 µM,> 10 µM,> 10 µM,> 10 µM,–,4%,245 to 247 °C,–,–,–
"CCN(CC)CCN1Cc2[nH]c(/C=C3\C(=O)Nc4ccc(C(F)(F)F)cc43)c(C)c2C1=O [Compound 11, (Z)-3-((5-(2-(Diethylamino)ethyl)-3-methyl-4-oxo-1,4,5,6-tetrahydropyrrolo[3,4-b]pyrrol-2-yl)methylene)-5-(trifluoromethyl)indolin-2-one]",7.22 ± 1.01 µM,8.49 ± 0.46 µM,> 10 µM,> 10 µM,did not differ from that of the 1% DMSO (control); also recorded: no inhibitory activity,0%,212 to 215 °C,–,>1.39,selective index (SI) 786-O (786-O cells): >1.18
"CCN(CC)CCN1Cc2[nH]c(/C=C3\C(=O)Nc4ccc([N+](=O)[O-])cc43)c(C)c2C1=O [Compound 12, (Z)-3-((5-(2-(diethylamino)ethyl)-3-methyl-4-oxo-1,4,5,6-tetrahydropyrrolo[3,4-b]pyrrol-2-yl)methylene)-5-nitroindolin-2-one]",6.61 ± 0.8 µM,> 10 µM,> 10 µM,> 10 µM,–,13%,229 to 230 °C,–,>1.51,–
"CCN(CC)CCN1Cc2[nH]c(/C=C3\C(=O)Nc4ccc(OC)cc43)c(C)c2C1=O [Compound 13, (Z)-3-((5-(2-(diethylamino)ethyl)-3-methyl-4-oxo-1,4,5,6-tetrahydropyrrolo[3,4-b]pyrrol-2-yl)methylene)-5-methoxyindolin-2-one]",6.37 ± 1.09 µM,7.86 ± 0.3 µM,> 10 µM,3.06 ± 0.67 µM,–,41%,214 to 216 °C,>3.27,>1.57,% inhibition of Aurora A at 1.0 μM (Aurora A): 92.9%; inhibition at 1 µM (Aurora A): 94.4%; IC50 (HUVEC cells): 0.74 ± 0.16 µM; potency in inhibiting in vitro tube formation relative to sunitinib in terms of IC50 (HUVEC cells): twofold higher; selective index (SI) 786-O (786-O cells): >1.27; cell cycle profile effect (HCT116 cells [3]; 3.0 μM): increase in polyploid cells; IC50 (VEGFR-2): 0.0478 µM; IC50 (PDGFRβ): 0.0762 µM
"CCN(CC)CCNC(=O)c1c(C)[nH]c(/C=C2\C(=O)Nc3ccc(F)cc32)c1C [Sunitinib, sunitinib, reference compound]",7.51 ± 0.78 µM,7.89 ± 0.6 µM,9.48 ± 0.18 µM,4.6 ± 0.23 µM,–,–,–,–,–,"inhibition at 1 µM (Aurora A): 50.7%; IC50 (HUVEC cells): 1.54 ± 0.08 µM; cell cycle profile effect (HCT116 cells [3]; 5.0 μM): G0/G1 cell cycle arrest; acute cytotoxicity, Detroit 551 (Detroit 551 cells [4]): neither our compounds nor sunitinib had acute cytotoxicity; acute cytotoxicity, HCT116 (HCT116 cells [5]): neither our compounds nor sunitinib had acute cytotoxicity"
